According to ChEMBL document CHEMBL1201862, “PubChem BioAssay data set” (2004):
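Values below derive from 48-hour exposures of cells grown in 96-well plates, with endpoints linearly interpolated between the two concentrations bracketing the appropriate inhibition level. GI50 is the concentration that inhibits growth by half.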 Activity calls are given as the source filed them. Cut-off read from the data, not from the text of the source: active = GI50 up to about 1.1 µM and inactive = higher.

What was measured:
Assay in all cases: growth of human tumour cells (NCI), 48 h
OVCAR-5 = test system: OVCAR-5
SK-OV-3 = test system: SK-OV-3
A498 = test system: A498
KM12 = test system: KM12
K562 = test system: K562
SNB-19 = test system: SNB-19
OVCAR-8 = test system: OVCAR-8
MCF7 = test system: MCF7
SF-295 = test system: SF-295
UACC-257 = test system: UACC-257
COLO 205 = test system: COLO 205
SR = test system: SR
SNB-75 = test system: SNB-75
RPMI-8226 = test system: RPMI-8226
SF-539 = test system: SF-539
MDA-MB-435 = test system: MDA-MB-435
HOP-92 = test system: HOP-92
MDA-MB-231 = test system: MDA-MB-231
NCI-H460 = test system: NCI-H460
MOLT-4 = test system: MOLT-4

Measured: GI50

CC1(CCCCO)C=CC(S(=O)(=O)c2ccccc2)CC1 (stereo not given)
inactive: OVCAR-5 4.85 µM | SK-OV-3 10.8 µM | A498 8.59 µM | KM12 1.86 µM | K562 3.24 µM | SNB-19 13.6 µM | OVCAR-8 10.5 µM | MCF7 3.15 µM | SF-295 12 µM | UACC-257 4.41 µM | COLO 205 4.37 µM | SR 2.33 µM | SNB-75 1.46 µM | RPMI-8226 1.56 µM | SF-539 7.91 µM | MDA-MB-435 9.42 µM | HOP-92 2.84 µM | MDA-MB-231 4.31 µM | NCI-H460 3.15 µM | MOLT-4 3.15 µM

COc1ccc(/C=N/n2c(Cc3ccccc3)n[nH]c2=O)c(OC)c1
inactive: OVCAR-5 49.1 µM | SK-OV-3 29.2 µM | A498 44.4 µM | KM12 > 100 µM | K562 > 100 µM | SNB-19 28.2 µM | OVCAR-8 24.7 µM | MCF7 > 100 µM | SF-295 15.3 µM | UACC-257 > 100 µM | COLO 205 > 31.6 µM | SR > 100 µM | SNB-75 9.71 µM | RPMI-8226 > 100 µM | SF-539 28.8 µM | MDA-MB-435 > 100 µM | HOP-92 24.2 µM | MDA-MB-231 36.7 µM | NCI-H460 > 50.7 µM | MOLT-4 > 100 µM

NC(=S)NN=C1Cc2ccccc2C1
inactive: OVCAR-5 > 100 µM | SK-OV-3 > 100 µM | A498 > 100 µM | KM12 > 100 µM | K562 > 100 µM | SNB-19 > 100 µM | OVCAR-8 > 100 µM | MCF7 > 100 µM | SF-295 > 100 µM | UACC-257 > 100 µM | COLO 205 > 100 µM | SR > 100 µM | SNB-75 > 100 µM | RPMI-8226 > 100 µM | SF-539 > 100 µM | MDA-MB-435 > 100 µM | HOP-92 > 100 µM | MDA-MB-231 > 100 µM | NCI-H460 > 100 µM | MOLT-4 > 100 µM

COC1OC(=O)C(OC)C(OC)C1OC (stereo not given)
inactive: OVCAR-5 > 100 µM | SK-OV-3 > 100 µM | A498 > 100 µM | KM12 > 100 µM | K562 > 100 µM | SNB-19 > 100 µM | OVCAR-8 88.3 µM | MCF7 > 100 µM | SF-295 > 100 µM | UACC-257 > 100 µM | COLO 205 > 100 µM | SR > 100 µM | SNB-75 > 100 µM | RPMI-8226 > 100 µM | SF-539 > 100 µM | MDA-MB-435 > 100 µM | HOP-92 > 100 µM | MDA-MB-231 > 100 µM | NCI-H460 > 100 µM | MOLT-4 > 100 µM

O=Cc1ccc(-c2cc(C=O)c(-c3cccs3)[nH]2)s1
inactive: OVCAR-5 > 75 µM | SK-OV-3 48.4 µM | A498 2.6 µM | KM12 25.8 µM | K562 25.9 µM | SNB-19 44.9 µM | OVCAR-8 21.4 µM | MCF7 19.4 µM | SF-295 21.8 µM | UACC-257 48 µM | COLO 205 25.1 µM | SR 4.05 µM | SNB-75 17.1 µM | RPMI-8226 53.2 µM | SF-539 24.4 µM | MDA-MB-435 25.6 µM | HOP-92 32.7 µM | MDA-MB-231 29.6 µM | NCI-H460 25.8 µM | MOLT-4 20.2 µM
